In patent US6447767B1, “Non-myeloablative tolerogenic treatment” (Hadasit Medical Research Services and Development Ltd., priority 1997, dated 2002):
“And” between values parts separate entries of the source, which are not always exact repeats. Identical values can stand only once. Like-named read-outs stand apart in the source and are kept apart here.

How the values were obtained:
[1] = system: Lewis rat skin xenografts
Description: The basic protocol for conditioning prior to transplantation included sTLI (1-6 daily exposures of 200 cGy) to a total dose of up to 1,200 cGy, followed by intravenous inoculation with 3×10^7 BMC on the day after the last TLI dose. […] One day after BMC infusion, experimental mice were injected with 200 mg/kg Cy (Taro, Israel) intraperitoneally. Cy was freshly dissolved in sterile phosphate-buffered saline prior to injection. […] A second infusion of donor, after Cy, was also administered in some of the mice.
Skin grafting was carried out 20 days after completion of the tolerogenic treatment. A full-thickness skin graft measuring 1 cm×1 cm was adjusted to the graft bed by 4 Thomas surgery clips (Thomas Scientific, USA). The panniculus camosus was kept intact in the graft bed. The graft was considered to be accepted when hair of donor color grew on the soft flexible underlying skin, and rejected when donor epithelium was lost.
Two groups of mice were administered sTLI of 6 fractions of 200 cGy/day. After sTLI conditioning, both groups were administered 30×10^6 non-T cell depleted Lewis rat BMC intravenously. The first group was given a single dose of 200 mg/kg Cy the next day. Another 3×10^7 non T cell depleted rat BMC were administered the following day. In the second group, a dose of 60 mg/kg Cy was given daily for 3 days in contrast to the single 200 mg/kg dose given the first group. The first dose of Cy was given 10 hours after the first rat BMC inoculation, the second dose at 24 hours and the third dose at 48 hours (see below). After administration of three doses of 60 mg/kg Cy, a second inoculation of 3×10^7 non T cell depleted rat BMC were administered.

[2] = system: murine YAC-1 tumor target cells; conditions: BALB/c SP or BM cells, ASTA-Z then rIL-2 6,000 IU/ml 4 days (FIG. 18)
Description: (§1) Human peripheral blood mononuclear cell (PBMC) and murine spleen or bone marrow populations were tested for their ability to lyse NK-sensitive target cells (human K562 and murine YAC-1 cells) and NK-resistant, activated NK-sensitive target cells (human Daudi and murine P815 cells) using standard ^51Cr-release assays. Briefly, ^51 Cr-labeled target cells were incubated at 37° C. with PBMC effector cells at various target cell to effector cell ratios for 4 hours. At the end of the incubation, the cells were pelleted by centrifugation and equal aliquots of supernatant were removed from each assay culture well and counted for radioactivity. Percent lysis was calculated by the following formula: [formula]
(§2) They were then harvested and tested for cytolytic activity in standard ^51Cr-release assays. While YAC-1 cells are sensitive to lysis by both NK and activated NK cells, P815 cells are not sensitive to lysis by NK cells but are sensitive to activated NK cells. […] While K562 cells are sensitive to lysis by both NK and activated NK cells, Daudi cells are not sensitive to NK cells but are sensitive to activated NK cells.

[3] = system: murine P815 tumor target cells; conditions: BALB/c SP or BM cells, ASTA-Z then rIL-2 6,000 IU/ml 4 days (FIG. 19)
Description: as §1, §2

[4] = system: BALB/c mouse spleen cells; test: Mitogen-induced T cell proliferation ([3H]-thymidine incorporation); assay type: cell-based
Description: Mitogen-induced T cell proliferative responses were measured by culturing spleen cells in the presence of the T cell mitogens concanavalin A (ConA, 10 μg/ml) or phytohemagglutinin (PHA, 1 μg/ml) for three days. [^3H]-thymidine was added to the cultures for the last 6 hours of culture and T cell proliferation was measured in terms of counts per minute (cpm) of [^3H]-thymidine incorporated into the DNA of the cells using cell harvesting and radioactivity techniques known to those in the art.
BALB/c spleen cells were cultured for 30 minutes at 37° C. in tissue culture medium containing 100 μg/ml of ASTA-Z and then tested for in vitro T cell responses.

K562 target cells = test: 51Cr-release lysis by killer cells generated from human PBMC with rIL-2; assay type: cell-based
Description: (§3) Percent lysis was calculated by the following formula: [formula]

Daudi target cells = test: as above; assay type: cell-based
Description: as §3

[5] = GVHD induction by B6 bone marrow in lethally irradiated SJL/J mice; assay type: in vivo; conditions: B6 BM 30 min with 100 μg/ml, 25×10^6 per mouse, SJL/J 1,100 cGy TBI (FIG. 20)
Description: (§4) Recipients were monitored for survival and clinical signs of GVHD such as ruffled fur, diarrhea, and measurable weight loss. […], samples of liver and lung sections were obtained form each mouse to test for histological evidence of GVHD. Histological preparations were analyzed by an independent pathologist on a double blind basis.
(§5) In parallel murine experiments, culture of B6 bone marrow for 30 minutes with ASTA-Z (100 μg/ml) prior to injection (25×10^6 per mouse) into lethally irradiated (1,100 cGy of TBI) SJL/J mice reduced the capacity of the bone marrow cells to induce GVHD (FIG. 20). Similarly, culture of B6 spleen cells for 30 minutes with ASTA-Z (100 μg/ml) prior to injection (25×10^6 per mouse) into sublethally irradiated BALB/c mice (600 cGy) reduced the capacity of the spleen cells to induce GVHD (FIG. 21).

[6] = GVHD induction by B6 spleen cells in sublethally irradiated BALB/c mice; assay type: in vivo; conditions: B6 spleen cells 30 min with 100 μg/ml, 25×10^6 per mouse, BALB/c 600 cGy (FIG. 21)
Description: as §4, §5

[7] = system: metastatic solid tumors / lymphoma; test: AlloCT with rIL-2 activated mismatched lymphocytes plus tumor-specific antibodies (case reports); assay type: in vivo, human; conditions: single patients; antibody given with rIL-2 activated haploidentically mismatched lymphocytes
Description: Donor-derived anti-cancer effector lymphocytes consisted of rIL-2 activated cells (four days activation with rIL-26,000 IU/ml) or using donor lymphocytes activated in vitro against irradiated tumor cells or host alloantigens in one way mixed lymphocyte tumor reaction or using donor lymphocytes pre-cultured with irradiated parental or other family member expressing either one of the patient's haplotypes in one way mixed lymphocyte cultures (in order to induce effector cells against inherited paternal or maternal haplotypes, to maximize anti-host alloreactivity to be used as adoptive allogeneic cell therapy (alloCT). In order to maximize anti-cancer effects, patients can be immunosuppressed with Fludarabine 25 mg/m^2×5 days. […] Following cell infusion, patients receive subcutaneously rIL-2 6×10^6 IU/m^2 in an attempt to continue to activate in vivo donor anti-tumor reactive lymphocytes. Two weeks post cell therapy, patient may receive injections of alpha interferon 3×10^6 IU every other day subcutaneously as anti-proliferative and mostly as anti-angiogenic effects to minimize or jeopardize tumor cell growth from residual tumor cells escaping alloCT.
The alloCT course was done according to the scheme described.
Both cycles of alloCT were followed with SC injections of r-IL2 6×10^6 IU for five days.

[8] = sTLI, rat BMC, single 200 mg/kg Cy, second rat BMC
[9] = ASTA-Z treated PBMC cultured with IL-2 6,000 IU/ml, target:effector 1:100
[10] = human PBMC, ASTA-Z then rIL-2 6,000 IU/ml 4 days

O=P1(N(CCCl)CCCl)NCCCO1 (centres unmarked) [Cy, cyclophosphamide]
recipients that developed lethal GVHD ([1]; Cy 3 × 60 mg/kg, of the 15 recipients that accepted xenografts): 5 | Skin Graft Acceptance ([1]; sTLI, rat BMC, Cy 60 mg/kg at 10 h, 24 h, 48 h, second rat BMC): 15 of 20 and 15/20 | Lethal GVHD [1, 8]: in most of the recipients | Skin Graft Acceptance [1, 8]: 0/6 | Skin Xenograft Survival Time [1, 8]: <20 days

mafosphamide [ASTA-Z]
generation of killer cells capable of killing YAC-1 target cells [2]: did not decrease | generation of killer cells capable of killing P815 target cells [3]: did not decrease | in vitro proliferative responses to the T cell mitogens ConA and PHA ([4]; 100 μg/ml, 30 minutes, 37°C): elimination | Cell Proliferation, Con-A ([4]; BALB/c spleen cells, ASTA-Z 100 μg/ml 30 min 37°C and/or IL-2 1,000 IU/ml, ConA 10 μg/ml): 2,980 cpm | Cell Proliferation, PHA ([4]; BALB/c spleen cells, ASTA-Z 100 μg/ml 30 min 37°C and/or IL-2 1,000 IU/ml, PHA 1 μg/ml): 5,118 cpm | Cell Proliferation, No Mitogens ([4]; BALB/c spleen cells, ASTA-Z 100 μg/ml 30 min 37°C and/or IL-2 1,000 IU/ml, no mitogen): 219 cpm | effect of added IL-2 on inhibition of responsiveness to the mitogens ([4]; IL-2 1,000 IU/ml added to cultures of spleen cells and ASTA-Z): did not overcome inhibition | Lysis of K562 target cells (percentage of 51Cr released) (K562 target cells; [9]): 52% and 48% | generation of killer cells capable of killing K562 target cells (K562 target cells; [10]): did not decrease | Lysis of Daudi target cells (percentage of 51Cr released) (Daudi target cells; [9]): 42% and 71% | generation of killer cells capable of killing Daudi target cells (Daudi target cells; [10]): did not decrease | capacity of the bone marrow cells to induce GVHD [5]: reduced | capacity of the spleen cells to induce GVHD [6]: reduced

MabThera: monoclonal anti-CD20 antibodies
clinical outcome [7]: no evidence of disease

B1: Panorex: anti-epithelial cell antibodies, anti-17A (antibody, chains of the INN, looked up, V domains shown)
VH: QVQLQQSGAELVRPGTSVKVSCKASGYAFTNYLIEWVKQRPGQGLEWIGVINPGSGGTNYNEKFKGKATLTADKSSSTAYMQLSSLTSDDSAVYFCARDGPWFAYWGQGTLVTVSA
VL: NIVMTQSPKSMSMSVGERVTLTCKASENVVTYVSWYQQKPEQSPKLLIYGASNRYTGVPDRFTGSGSATDFTLTISSVQAEDLADYHCGQGYSYPYTFGGGTKLEIK
clinical outcome [7]: no evidence of disease
